Test results: patent publication US20020177120A1, “ASSAYS FOR APOTOSIS MODULATORS” (priority 1999, published 2002)
“Also recorded” adds a separate entry of the source. *1 amine or outer side, *2 acyl side, *3 side chain or, on linkers, in order; H or OH if unused. Where a SMILES comes first, the peptide text is derived from it. Bridges are numbered along the chain shown (N, C = ends). Roman numbers before positions name the chains, in order. [ ]: non-standard residue; d: D form. Actinocin(9to1) = Cc1c2oc3c(C)ccc(C(=O)[*:1])c3nc-2c(C(=O)[*:2])c(N)c1=O; NMeV = CN[C@H](C(=O)O)C(C)C; Sar = CNCC(=O)O

Assays:
[1] = tested on: IMR-32 cells; assay: Cell death / SYTO 13 cell survival in IMR-32 cells; format: cell-based; settings: for programmed cell death as measured by Cell Death Detection: 4-8 hrs. treatment; for cells surviving (SYTO 13 assay): 50 μM etoposide
Procedure: (§1) Three CNS derived cell lines, IMR-32, NB41A3 and Neuro2A, were initially evaluated for growth and transfection characteristics, inducibility of apoptosis in a large percentage of cells, and a inducible apoptosis protease activity. […] The SYTO 13 cell survival assay and Cell Death Detection ELISA^PLUS (Materials and Methods) were used to optimize conditions for induction of apoptosis. IMR-32 cells were treated with Actinomycin D (ActD), cycloheximide (CHX), etoposide or staurosporin for 4-8 hrs.
SYTO13 Cell Viability Assays: Cells were seeded into 96-well plates, incubated overnight to adhere cells to the plastic, and then treated in quadruplicate for various times with extrinsically applied apoptosis-inducing agents, i.e., staurosporin or etoposide. Cell viability was determined using 5 μM SYTO 13 (Molecular Probes) and/or 5 μg/ml propidium iodide (PI, Molecular Probes). As controls, four wells of untreated cells were stained with SYTO 13 and PI, i.e., to measure the maximum signal (max), and four wells of untreated cells were stained with only PI, i.e., to measure the minimum signal (min). After 30 minutes of incubation at 37° C., fluorescence was assayed in plates using the Cytofluor II plate reader (Perseptive Biosystems) (excitation 485/20 nm; emission 530/30 nm; gain 50). Data was collected as relative fluorescence units (rfu) and averaged for six readings per well. Percent cell survival was calculated as 100×(rfutreatment−rfumin)/(rfumax−rfumin).
(§2) Etoposide-Induced Cell Death and Apoptotic DNA Fragmentation in IMR-32 Cells: Confluent IMR-32 cells were treated with 50 μM etoposide phosphate for 2, 8, 17 or 24 hrs. To evaluate apoptosis cells were either: i) stained with SYTO 13 and assayed for fluorescence using a Cytofluor II plate reader (excitation 485/20 nm, emission 530/30 nm), or ii) nucleosome-associated DNA fragments were detected using the Cell Death Detection ELISA^PLUS (Boehringer Mannheim) according to the manufacturer's instructions.

[2] = tested on: caspase-3; assay: Caspase-3 assay in IMR-32 cells; format: cell-based
Procedure: as §1
(§3) Caspase-3 Assay: Caspase-3 activity was assayed according to the following protocol. Cells plated and treated as above were washed in 1×PBS and lysed in 1×assay buffer (1 mM DTT, 1% Triton X-100, 0.5% Tween-20 in 1×PBS, pH 7.2). Lysates were combined with fluorogenic substrate, Ac-DEVD-AMC ([…]), ±inhibitor, Ac-DEVD-CHO (10 μM) (Bachem) in 1×assay buffer and incubated in the dark for 1 hr. at room temperature. Fluorescence readings were taken on the Cytofluor II plate reader (excitation 360 nm, emission 460 nm, 6 reads/well, gain 50).
Confluent IMR-32 cells were treated with 100 μM etoposide for 8 hrs. Cell lysates were collected and assayed for caspase-3 activity.

[3] = tested on: F9-1-13 cells; assay: Cell-based FRET reporter assay in F9-1-13 (SgAT) cells; set-up: species or system human
Text: Transfection of pcDNA3VH-SgAT and pcDNA3VH-SnAT into U-138 cells (using methods described above) resulted initially in few colonies and FRET signal was lost in many clones during expansion, however, from among the various subclones the F9-1-13 (pcDNA3VH-SgAT transfected; ATCC No. PTA-84) and F10-24-2 (pcDNA3-SnAT transfected) subclones were eventually expanded and shown to express stable FRET signals. As desired, the FRET signal expressed in F9-1-13 decreased in response to both staurosporin and anti-Fas antibody treatment of cells, while the FRET signal expressed by the F10-24-2 control cells, (i.e., lacking a caspase substrate domain), was unaffected following staurosporin or anti-Fas antibody treatment. […] F9-1-13 therefore appeared suitable for microtiter assays, and perhaps use in HTS assays for screening to identify and select modulators of apoptosis.
Studies were initiated to adapt the experimental cell-based FRET assay of EXAMPLE 5 to a format suitable for use in high-throughput screening. First, the assay was scaled down from a 24-well to a 96-well plate format. Cells from three different F9 parental cultures were plated in a black-sided 96-well plates (Costar #3904) at a density of 32,000 cells/well (˜1×10^5 cells/cm^2); allowed to adhere overnight; and then the media was replaced with either 100 μl fresh media containing inducer (5 μM staurosporin in 0.25% DMSO vehicle) or 100 μl containing only vehicle (0.25% DMSO). After an overnight incubation, fluorescence measurements were made to evaluate FRET signal changes. […] The assay therefore appeared to be adaptable to a 96-well format but it was not initially clear how signal might be improved to increase the signal-to-background ratio.
A 96-well FRET assay was evaluated for inter-assay well variability and inter-plate variability. Possible signal drift during measurement of the FRET fluorescence signal was evaluated using one of two different robotics-compatible rapid fluorescence plate readers (SpeedReader or Cytofluor II). After plating at an initial density of about 60,000 cells/well, and overnight culture F9-1-13 cells were treated with 5 μM staurosporin, or vehicle. After an overnight incubation in staurosporin (i.e., 16-24 hrs.), the plates were either washed, or not washed, and then assayed repeatedly over the next 1.5 hours using either of the plate readers. […] However, using the same assay conditions but with anti-Fas antibody as an inducer, different results were recorded. […] The basis for the observed differences in measuring devices is not clear, but may relate to the design of the light source and/or the sensitivity of the detection circuitry in the two different respective fluorescence readers as well as possible different means for optically or digitally subtracting background incident radiation.
Assay Confirmation: The following experiment was performed to validate the ability of the 96-well FRET assay to detect inhibitors of apoptosis: namely, F9-1-13 cells (n=5 wells) were treated with 50-100 μM Z-VAD-fmk (a broad spectrum caspase inhibitor) or vehicle (n=55) in randomized wells of a 96-well plate. All of these wells, and six additional positive control wells (i.e., lacking the inhibitor), were treated with 5 μM staurosporine in 0.25% DMSO vehicle. Six negative control wells were treated with vehicle only (0.25% DMSO). After overnight incubation, FRET signal changes were evaluated as described above.
Three alternatives to staurosporine induction were evaluated: serum withdrawal; c2-ceramide treatment; and induction via engagement of the CD95/Fas receptor with anti-Fas antibody. […] To increase the proportion of adherent cells, poly-D-lysine and 0.1% gelatin were evaluated in anti-Fas antibody treated F9-1-13 cells. […] Anti-Fas antibody was therefore chosen as a preferred inducer of apoptosis for high-throughput screening. […]

[4] = tested on: caspase-3; assay: Caspase-3 activity in F9-1-13 cells; format: cell-based, human; settings: 75 μM, 16-24 hours
Procedure: Three alternatives to staurosporine induction were evaluated: serum withdrawal; c2-ceramide treatment; and induction via engagement of the CD95/Fas receptor with anti-Fas antibody. […] To increase the proportion of adherent cells, poly-D-lysine and 0.1% gelatin were evaluated in anti-Fas antibody treated F9-1-13 cells. […] Anti-Fas antibody was therefore chosen as a preferred inducer of apoptosis for high-throughput screening.
as §3

[5] = tested on: caspase-3; assay: Caspase-3 assay in SAT-reporter-transformed HEK293 cells after apoptosis inducers; format: cell-based, human; settings: 100-200 μM etoposide, 4, 5, 8 or 24 hrs.
[6] = tested on: IMR-32 cells; assay: Microscopic examination of SYTO 13 / propidium iodide stained IMR-32 cells; format: cell-based; settings: etoposide
Text: as §1, with “IMR-32 cells were treated with Actinomycin D (ActD), cycloheximide (CHX), etoposide or staurosporin for 4-8 hrs.” left out
Morphologic Markers of Apoptosis: Microscopic markers of apoptosis include membrane blebbing, cell shrinkage (i.e., cytoplasmic condensation) and condensed (dense) chromosomal nuclear materials (i.e., pyknosis).

[7] = tested on: IMR-32 cells; format: cell-based
Procedure: as §1
DNA Fragmentation ELISA: Apoptosis-induced inter-nucleosomal fragmentation of chromosomal DNA was quantified using the “Cell Death Detection ELISA^PLUS” (Boehringer Mannheim) according to the manufacturer's instructions. Briefly, ˜10^4 cells/well were plated on a poly-D-lysine-coated 96-well plate and treated for various periods of times with different apoptosis-inducing agents. The cells were lysed and the nuclei and membranes were pelleted. An aliquot of the cytoplasm-containing supernatant was then transferred to a streptavidin-coated microtiter plate and incubated with anti-histone-biotin and anti-DNA-peroxidase, resulting in the formation of “sandwich” antibody complexes, i.e., (anti-DNA-peroxidase)-(nucleosomal-DNA-containing-histone) -(anti-histone-biotin)-(streptavidin-microtiter plate). Unbound antibody was removed by washing. Peroxidase substrate (i.e., ABTS) was added and nucleosomal DNA complexes quantified by spectrophotometric analysis of the colored peroxidase reaction product.
as §2

[8] = tested on: F1-1-42 cells; assay: Staurosporin-induced apoptosis in F1-1-42 SAT FRET reporter cells (FRET signal, western blot, caspase-3, morphology); format: cell-based, human; settings: 100 μM added 30 min prior to staurosporin
Procedure: Detecting Intracellular Changes in a FRET Reporter in Cells Undergoing Apoptosis: Having established that SAT reporter protein synthesized in HEK293 cells could be cleaved ex vivo, i.e., in cell lysates by trypsin (above), an initial in vivo intracellular assay was conducted using the selected F1-1-42 clonal cell line and staurosporin to induce apoptosis. […] In these experiments the F1-1-42 cells were plated at a density of 4×10^5 cells/0.5 ml in each well of a 24-well microtiter plate. After overnight incubation, apoptosis was induced by adding staurosporin to a final concentration of 5 μM, and using vehicle (0.25% DMSO) as a negative control. Assays for caspase-3 were used to confirm that apoptosis was induced. […] Subsequent testing determined that significant changes in FRET signal were first detectable at about 8 hours after addition of staurosporin and were maximal by 24 hrs post-induction.

[9] = 50 μM etoposide phosphate, 2, 8, 17 or 24 hrs.

**Q.** Cc1c2oc3c(C)ccc(C(=O)N[C@@H]4C(=O)N[C@H](C(C)C)C(=O)N5CCC[C@H]5C(=O)N(C)CC(=O)N(C)[C@@H](C(C)C)C(=O)O[C@@H]4C)c3nc-2c(C(=O)N[C@@H]2C(=O)N[C@H](C(C)C)C(=O)N3CCC[C@H]3C(=O)N(C)CC(=O)N(C)[C@@H](C(C)C)C(=O)O[C@@H]2C)c(N)c1=O [ActD, Actinomycin D] (I: T[dV]P[Sar][NMeV] / II: T[dV]P[Sar][NMeV]; ester I:1-I:C, II:1-II:C; linker I:N-II:N via Actinocin(9to1)) was tested. Which “programmed cell death as measured by Cell Death Detection” value (shortened to “programmed cell death as measured”) [1] did it give?
**A.** Its value is “about 30%”.

**Q.** C[C@@H]1C[C@@H]([C@H](O)CC2CC(=O)NC(=O)C2)C(=O)[C@@H](C)C1 [CHX, cycloheximide] was tested. Which “programmed cell death as measured” value [1] did it give?
**A.** Its value is “about 50%”.

**Q.** For COc1cccc2c1C(=O)c1c(O)c3c(c(O)c1C2=O)C[C@@](O)(C(=O)CO)C[C@@H]3O[C@H]1C[C@H](N)[C@H](O)[C@H](C)O1 [Doxorubicin], which “increase in caspase-3 activity” value ([2]; 5 μM) is on record?
**A.** The value was “did not produce any increase in caspase-3 activity”.

**Q.** For CCCCCCCCCCCCC/C=C/[C@@H](O)[C@H](CO)NC(C)=O [c2-ceramide], which FRET signal change ([3]; 75 μM, 16-24 hours) is on record?
**A.** The FRET signal change was “Only a small reduction in the FRET signal”.

**Q.** And the caspase-3 activity change [4]?
**A.** Its caspase-3 activity change is “Only a small reduction in the FRET signal and increase in caspase-3 activity”.

**Q.** For COc1cc([C@@H]2c3cc4c(cc3[C@@H](O[C@@H]3O[C@@H]5CO[C@@H](C)O[C@H]5[C@H](O)[C@H]3O)[C@H]3COC(=O)[C@H]23)OCO4)cc(OC)c1O [etoposide], which “change in caspase-3 activity” value [5] is on record?
**A.** The value was “no change was observed; also recorded: showed no effect”.

**Q.** What about the “attached cells obviously dead” value ([6]; 8 hrs.) of the same compound?
**A.** Its value is “none were obviously dead”.

**Q.** And the “attached cells with condensed nuclei and membrane blebbing” value ([6]; 8 hrs.)?
**A.** The value was “about 50%”.

**Q.** What about the “attached cells clearly dead” value ([6]; 24 hrs.) of the same compound?
**A.** The value was “about 15%”.

**Q.** And the “attached cells showing apoptotic morphology” value ([6]; 24 hrs.)?
**A.** The value was “about 75%”.

**Q.** And the “increase in caspase-3 activity” value ([2]; confluent IMR-32, 100 μM etoposide, 8 hr.)?
**A.** Its value is ~5 fold.

**Q.** What about the “induction of caspase-3-like activity” value ([2]; etoposide 50-100 μM) of the same compound?
**A.** The value was ~10 fold.

**Q.** What about the “cell survival by SYTO 13 staining in comparison with untreated controls” value [1, 9] of the same compound?
**A.** The value was “a decrease in cell survival over 24 hrs”.

**Q.** And the “cells surviving (SYTO 13 assay)” value ([1]; 8 hr)?
**A.** Its value is 55%.

**Q.** And the “cells surviving (SYTO 13 assay)” value ([1]; 24 hrs)?
**A.** The value was 30%.

**Q.** What about the “programmed cell death as measured” value [1] of the same compound?
**A.** Its value is “about 50%”.

**Q.** And the “time at which DNA fragmentation reached a maximal value” ([7]; 50 μM etoposide)?
**A.** The value was 8 h.

**Q.** And the “measured apoptotic DNA fragmentation” value [7, 9]?
**A.** The value was “an increase in measured apoptotic DNA fragmentation”.

**Q.** What about the “DNA fragmentation as determined by ELISA, dose dependence” value ([7]; 4-8 hrs. treatment) of the same compound?
**A.** Its value is “dose-dependent changes”.

**Q.** Which “effect on cleavage of SAT reporter in cell extracts (western blot)” value [8] does the source give for Z-DEVD-fmk here?
**A.** Its value is “markedly less cleavage of SAT reporter”.

**Q.** What about the “effect on morphologic signs of apoptosis” value [8] of the same compound?
**A.** The value was “reduced morphologic signs of apoptosis”.

**Q.** What about the “effect on staurosporin-induced FRET signal change” value [8] of the same compound?
**A.** Its value is “marked reduction in the FRET signal change”.

**Q.** For Z-VAD-fmk, which “mean FRET signal greater than in the staurosporine treatment group” value ([3]; 50-100 μM Z-VAD-fmk, 5 μM staurosporine, overnight, 96-well, P<0.001) is on record?
**A.** Its value is ~65%.
